Legend:
[1] = Dissolution measurement by USP Apparatus 2 (Paddle Apparatus), HPLC analysis; format: physicochemical; conditions: in a capsule, 500 ml 0.1 N HCl pH 1.1, N=6
Procedure: Dissolution studies were conducted to measure the rates of dissolution of active ingredients using a USP Apparatus 2 (Paddle Apparatus) with a dissolution fluid of 500 ml deaerated 0.1 N HCl (i.e., pH 1.1) at 37.0+/−0.5° C. Dissolution samples were analyzed by HPLC.
Dissolution medium of 0.1N HCl was prepared by mixing approximately 85 ml of concentrated (12N) Hydrochloric Acid with 10 L of water. Stock promethazine HCl standard solution was prepared by adding approximately 30 ml of dissolution medium to 25.0 mg of dried Promethazine Hydrochloride USP reference standard in a 50 ml volumetric flash, diluted to volume with dissolution media, and mixed well. […] The resulting solution is diluted to volume with dissolution medium and mixed well.
The dissolution apparatus used is USP Apparatus 2 (Paddle Apparatus) with a speed of 50 rpm at 37.0° C.±0.5° C. Dissolution medium (500 ml) was Helium sparged for at least 10 minutes. N=6 samples were tested. Sample time point of 5, 10, 15, 20, 30, 45, 60, and 90 minutes (final time point at 250 rpm). Filters: QLA 10 μm in-line full flow porous filter or equivalent; chromafil 1.0 μm on-line glass fiber membrane filter or equivalent.
The dissolution apparatus was assembled and the paddle was positioned so that the distance between its lower edge and the lower inner surface of the vessel is within 25 mm±2 mm throughout the test. This step was repeated for each of the six vessels. The speed (50 rpm) and the temperature (37.0° C.±0.5° C.) were set. 500 mL of 0.1N HCl solution were placed into each of the six vessels, previously degassed via helium purge, degassed using degasser or other suitable means. The Dissolution medium was equilibrated to set temperature and the temperature of the dissolution medium was checked with a thermometer or thermocouple before starting the dissolution. Each of the six (6) capsules were accurately weighed and the weight was recorded. The dissolution test was started. Each capsule was dropped with sinker into vessels noting the station assigned to each recorded capsule weight. The shaft was rotated at 50 rpm. Samples were withdrawn by dissolution auttosampler at 5, 10, 15, 20, 30, 45, 60, and 90 minutes into HPLC vials, or were withdraw manually. Filters (QLA 10 μm in-line full flow porous filter or equivalent; chromafil 1.0 μm on-line glass fiber membrane filter or equivalent) were utilized, discarding at least the first 5 mL of the filtrate, and clear filtrate was transfered into HPLC vials. After withdrawing samples at the 60 minute time point, the paddle rotation speed was increased to 250 rpm until the next time point of 90 minutes.
HPLC conditions: Flow rate: 1.0 ml/min; Injection Volume: 10 μL; Column Temperature: 40° C.±2° C.; Wavelengths: 240 nm; Run Time: 7 minutes; Mobile Phase A was 0.2% TFA in Water, which was prepared by mixing well 2.0 ml of trifluoroacetic acid with 1 L of water. Mobile Phase B: 0.2% TFA in Acetonitrile, which was prepared by mixing well 2.0 ml of trifluoroacetic acid to 1 L of acetonitrile; and Gradient used was as follows in Table 8.
If a Water® dissolution autosampler was utilized, then the Empower Dissolution Software was used to calculate the profile. Calculation are performed using a validated excel spreadsheet. When the sample was performed manually, the volume correction was considered for the calculation.

[2] = Impurity profile (related substances) by HPLC, initial and after one month at 40° C. (stability study); format: physicochemical; conditions: HPLC percent area
Procedure: The percentages of related substances were measured using an HPLC.
Stock promethazine HCl selectivity solution was prepared by accurately weighing about 2 mg of EP promethazine for peak identification CRS and transferring into 1 mL of diluent (prepared by mixing 750 mL of mobile phase A and 250 mL of acetonitrile), followed by vortexing to dissolve.
Ten capsules were randomly selected and weighed. The contents of the ten capsules were emptied into a 500 mL volumetric flask. 300 mL of diluent was added and the mixture was sonicated in an ice bath for 40 minutes or until completely disintegrated with intermittent swirling. The temperature was equilibrated to room temperature and more diluent was added to volume.
Promethazine HCl impurity sample solution: stock solution sample was filtered through a 0.45 μm PVDF membrane, syringe filter or a 0.45 μm PTFE w/GMF membrane, syringe filter discarding the first 5 mL and collecting approximately 20 mL into an appropriate glass container. Fill an HPLC vial with the filtrate
The RT of the promethazine in the promethazine HCl selectivity solution is between 44.1 and 53.9.
Mobile Phase B: 0.2% TFA in Acetonitrile, which was prepared by mixing well 2.0 ml of trifluoroacetic acid to 1 L of acetonitrile; and Gradient used was as follows in Table 15.
All known and unknown impurities were calculated via percent area as follow:
[formula] Where: • Ru=Peak area of related substance in the sample solution • Rt=Sum of peak area of promethazine or sumatriptan and all related substances areas corresponding to respective peak in sample solution • RRF=Relative Response Factor for related substances
The formulation was examined for its stability after one month at 40° C.

[3] = after 1 month store at 40° C., 5 min, 50 rpm
[4] = after 1 month store at 40° C., 10 min, 50 rpm
[5] = after 1 month store at 40° C., 15 min, 50 rpm
[6] = after 1 month store at 40° C., 20 min, 50 rpm
[7] = after 1 month store at 40° C., 30 min, 50 rpm
[8] = after 1 month store at 40° C., 45 min, 50 rpm
[9] = after 1 month store at 40° C., 60 min, 50 rpm
[10] = after 1 month store at 40° C., 90 min (250 rpm after 60 min)
[11] = large batch, 90 min (250 rpm after 60 min)

Structure (SMILES): CNS(=O)(=O)Cc1ccc2[nH]cc(CCN(C)C)c2c1 [Sumatriptan, Sumatriptan succinate]
- Dissolution (% release), Max. [1, 3]: 77
- Dissolution (% release), Mean [1, 3]: 60
- Dissolution (% release), Min. [1, 3]: 47
- Dissolution (% release), Max. [1, 4]: 89
- Dissolution (% release), Mean [1, 4]: 76
- Dissolution (% release), Min. [1, 4]: 62
- Dissolution (% release), Max. [1, 5]: 91
- Dissolution (% release), Mean [1, 5]: 81
- Dissolution (% release), Min. [1, 5]: 69
- Dissolution (% release), Max. [1, 6]: 94
- Dissolution (% release), Mean [1, 6]: 85
- Dissolution (% release), Min. [1, 6]: 74
- Dissolution (% release), Max. [1, 7]: 95
- Dissolution (% release), Mean [1, 7]: 88
- Dissolution (% release), Min. [1, 7]: 80
- Dissolution (% release), Max. [1, 8]: 97
- Dissolution (% release), Mean [1, 8]: 91
- Dissolution (% release), Min. [1, 8]: 84
- Dissolution (% release), Max. [1, 9]: 98
- Dissolution (% release), Mean [1, 9]: 93
- Dissolution (% release), Min. [1, 9]: 86
- Dissolution (% release), Max. [1, 10]: 100
- Dissolution (% release), Mean [1, 10]: 98
- Dissolution (% release), Min. [1, 10]: 96
- Dissolution (% release), Max. ([1]; large batch, 5 min, 50 rpm): 73
- Dissolution (% release), Mean ([1]; large batch, 5 min, 50 rpm): 66
- Dissolution (% release), Min. ([1]; large batch, 5 min, 50 rpm): 56
- Dissolution (% release), Max. ([1]; large batch, 10 min, 50 rpm): 86
- Dissolution (% release), Mean ([1]; large batch, 10 min, 50 rpm): 80
- Dissolution (% release), Min. ([1]; large batch, 10 min, 50 rpm): 73
- Dissolution (% release), Max. ([1]; large batch, 15 min, 50 rpm): 89
- Dissolution (% release), Mean ([1]; large batch, 15 min, 50 rpm): 85
- Dissolution (% release), Min. ([1]; large batch, 15 min, 50 rpm): 81
- Dissolution (% release), Max. ([1]; large batch, 20 min, 50 rpm): 91
- Dissolution (% release), Mean ([1]; large batch, 20 min, 50 rpm): 88
- Dissolution (% release), Min. ([1]; large batch, 20 min, 50 rpm): 84
- Dissolution (% release), Max. ([1]; large batch, 30 min, 50 rpm): 93
- Dissolution (% release), Mean ([1]; large batch, 30 min, 50 rpm): 90
- Dissolution (% release), Min. ([1]; large batch, 30 min, 50 rpm): 87
- Dissolution (% release), Max. ([1]; large batch, 45 min, 50 rpm): 95
- Dissolution (% release), Mean ([1]; large batch, 45 min, 50 rpm): 93
- Dissolution (% release), Min. ([1]; large batch, 45 min, 50 rpm): 91
- Dissolution (% release), Max. ([1]; large batch, 60 min, 50 rpm): 96
- Dissolution (% release), Mean ([1]; large batch, 60 min, 50 rpm): 94
- Dissolution (% release), Min. ([1]; large batch, 60 min, 50 rpm): 92
- Dissolution (% release), Max. [1, 11]: 98
- Dissolution (% release), Mean [1, 11]: 98
- Dissolution (% release), Min. [1, 11]: 97
- Impurity percentages, all related substances combined ([2]; in a capsule stored at 40° C. for 1 month): None Detected
- Impurity percentages, all related substances combined ([2]; in a capsule, initial (before storage)): 0.1%

Source: patent US10772840B2 (Charleston Laboratories, Inc., priority 2016, dated 2020)
